Here are results for five molecules from patent publication US5447954A, “Phenylderivate as inhibitors of ATP citrate lyase” (SmithKline Beecham p.l.c., priority 1992, dated 1995).

One test addresses T1, human ATP citrate lyase (Homo sapiens, UniProt P53396).
T1 construct: made in house
T1 sequence (P53396 1-1101): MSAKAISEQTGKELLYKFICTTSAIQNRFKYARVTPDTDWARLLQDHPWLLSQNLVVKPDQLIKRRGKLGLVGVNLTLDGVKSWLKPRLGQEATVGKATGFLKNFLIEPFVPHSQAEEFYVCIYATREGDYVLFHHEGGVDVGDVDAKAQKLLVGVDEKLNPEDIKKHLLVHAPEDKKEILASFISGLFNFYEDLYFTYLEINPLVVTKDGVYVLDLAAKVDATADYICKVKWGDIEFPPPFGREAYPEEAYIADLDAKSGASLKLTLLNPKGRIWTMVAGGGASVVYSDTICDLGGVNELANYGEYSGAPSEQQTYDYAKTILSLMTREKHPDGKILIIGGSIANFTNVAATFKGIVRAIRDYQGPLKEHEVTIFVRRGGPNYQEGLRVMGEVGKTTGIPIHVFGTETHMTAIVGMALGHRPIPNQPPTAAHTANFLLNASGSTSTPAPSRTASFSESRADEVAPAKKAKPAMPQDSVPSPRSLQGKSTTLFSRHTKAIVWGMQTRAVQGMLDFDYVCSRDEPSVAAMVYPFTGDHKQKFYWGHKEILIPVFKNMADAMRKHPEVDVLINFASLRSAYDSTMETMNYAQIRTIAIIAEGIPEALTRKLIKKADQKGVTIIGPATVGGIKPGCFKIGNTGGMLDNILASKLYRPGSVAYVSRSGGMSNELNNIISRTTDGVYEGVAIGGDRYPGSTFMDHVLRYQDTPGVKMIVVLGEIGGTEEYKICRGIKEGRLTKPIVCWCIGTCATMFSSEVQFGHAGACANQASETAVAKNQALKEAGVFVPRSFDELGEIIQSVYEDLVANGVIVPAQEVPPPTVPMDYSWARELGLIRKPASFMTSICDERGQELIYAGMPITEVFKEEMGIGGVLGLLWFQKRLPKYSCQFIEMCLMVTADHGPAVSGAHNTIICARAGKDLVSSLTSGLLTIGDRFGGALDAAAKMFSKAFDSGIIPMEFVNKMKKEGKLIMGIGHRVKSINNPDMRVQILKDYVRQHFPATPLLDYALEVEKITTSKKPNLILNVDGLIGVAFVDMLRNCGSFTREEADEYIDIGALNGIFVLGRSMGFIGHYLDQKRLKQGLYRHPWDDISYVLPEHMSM
In words: Assay of ATP Citrate lyase in the presence of inhibitors (human enzyme). To be noted: 100 μM citrate, pH 8.0, 25° C. The format is biochemical. As to the method:
Purification of ATP Citrate lyase-human and rat enzymes (ii) human enzyme Human ATP citrate lyase was prepared as described in European Journal of Biochemistry, 1992, 204, 491-99, with modifications for large scale purification according to Wells as referred to above. Protein obtained by this method was pure as judged by SDS-PAGE. Assay of ATP Citrate lyase in the presence of inhibitors ATP Citrate lyase activity was assayed at 25° C. by reducing the oxaloacetate produced with malate dehydrogenase and NADH while monitoring at 340 nm using a Beckman DU50 spectrophotometer (according to the method of […] al (J. Biol. Chem., 1979, 254, 1691-1698)). Briefly, ATP citrate lyase (human or rat) was added to a 1 ml cuvette containing 50 mM Tris/HCl, pH=8.0, 0.2 mM NADH, 10 mM MgCl2, 10 mM KCl, 5 mM ATP, 200 μM coenzyme A, 10 mM dithiothreitol and malate dehydrogenase. An aqueous solution of inhibitor was added (for inhibitors which were insoluble in water, a stock solution was prepared in DMSO. However the final DMSO concentration in the cuvette was not allowed to exceed 1%.). Finally, tripotassium citrate was added to 100 μM final. This is Km for citrate (Wells et al (Eur. J. Biochem., 1992, 204, 249-255) and Houston et al (Biochim. Biophys. Acta, 1985, 844, 233-239)). Data analysis was performed using the curve fitting package Enzfitter (Elsevier Biosoft). […]

The target in the next test is T2, rat ATP citrate lyase (Rattus norvegicus, UniProt P16638).
T2 construct: prior to removal of the livers; ATP Citrate lyase was prepared according to the method of Wraight et al; from tissue; host or cells: liver of male Wistar rats (fasted, then fed a high carbohydrate diet)
T2 sequence (P16638 1-1100): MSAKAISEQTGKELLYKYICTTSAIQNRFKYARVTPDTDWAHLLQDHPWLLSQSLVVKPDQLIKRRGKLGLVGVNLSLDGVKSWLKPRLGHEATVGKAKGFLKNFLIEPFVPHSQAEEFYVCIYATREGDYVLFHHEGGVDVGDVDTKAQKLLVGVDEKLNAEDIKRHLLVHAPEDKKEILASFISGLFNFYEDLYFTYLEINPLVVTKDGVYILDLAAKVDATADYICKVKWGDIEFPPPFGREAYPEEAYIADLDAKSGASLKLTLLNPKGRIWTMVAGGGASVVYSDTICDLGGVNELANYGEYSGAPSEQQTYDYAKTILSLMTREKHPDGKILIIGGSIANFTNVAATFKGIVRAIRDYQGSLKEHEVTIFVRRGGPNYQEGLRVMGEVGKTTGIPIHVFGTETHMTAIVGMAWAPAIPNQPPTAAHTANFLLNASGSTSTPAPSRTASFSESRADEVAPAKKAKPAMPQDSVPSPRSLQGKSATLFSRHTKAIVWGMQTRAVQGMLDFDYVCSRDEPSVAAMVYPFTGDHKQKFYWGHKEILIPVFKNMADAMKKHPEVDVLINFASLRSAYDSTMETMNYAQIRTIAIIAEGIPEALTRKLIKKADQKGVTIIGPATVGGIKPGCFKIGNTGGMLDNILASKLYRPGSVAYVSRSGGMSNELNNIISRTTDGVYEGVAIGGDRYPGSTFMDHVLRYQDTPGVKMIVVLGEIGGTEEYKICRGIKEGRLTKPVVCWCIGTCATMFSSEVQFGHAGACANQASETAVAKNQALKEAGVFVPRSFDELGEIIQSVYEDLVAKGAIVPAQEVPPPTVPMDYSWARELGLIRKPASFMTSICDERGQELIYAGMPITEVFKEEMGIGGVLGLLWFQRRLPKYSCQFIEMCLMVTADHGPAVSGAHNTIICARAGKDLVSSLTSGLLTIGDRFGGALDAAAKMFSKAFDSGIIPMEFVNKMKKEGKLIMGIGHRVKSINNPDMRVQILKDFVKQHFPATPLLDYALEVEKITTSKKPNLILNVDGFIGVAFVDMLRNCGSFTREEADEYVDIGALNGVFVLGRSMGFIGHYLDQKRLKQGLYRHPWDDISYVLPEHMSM
Put plainly: Assay of ATP Citrate lyase in the presence of inhibitors (rat enzyme). The format is biochemical. The settings on record: 100 μM citrate, pH 8.0, 25° C. As to the method: 1. RAT ATP CITRATE LYASE (ACL) ASSAY
Purification of ATP Citrate lyase-human and rat enzymes
Male Wistar rats were fasted for 24 h, then fed on a high carbohydrate diet for 72 h prior to removal of the livers. ATP Citrate lyase was prepared according to the method of Wraight et al (Anal. Biochem., 1985, 144, 604-609) with modifications for large scale purification according to Wells (Eur. J. Biochem., 1991, 199, 163-168). Protein obtained by this method was pure as judged by SDS-PAGE.
Assay of ATP Citrate lyase in the presence of inhibitors
ATP Citrate lyase activity was assayed at 25° C. by reducing the oxaloacetate produced with malate dehydrogenase and NADH while monitoring at 340 nm using a Beckman DU50 spectrophotometer (according to the method of Linnet al (J. Biol. Chem., 1979, 254, 1691-1698)). Briefly, ATP citrate lyase (human or rat) was added to a 1 ml cuvette containing 50 mM Tris/HCl, pH=8.0, 0.2 mM NADH, 10 mM MgCl2, 10 mM KCl, 5 mM ATP, 200 μM coenzyme A, 10 mM dithiothreitol and malate dehydrogenase. An aqueous solution of inhibitor was added (for inhibitors which were insoluble in water, a stock solution was prepared in DMSO. However the final DMSO concentration in the cuvette was not allowed to exceed 1%.). Finally, tripotassium citrate was added to 100 μM final. This is Km for citrate (Wells et al (Eur. J. Biochem., 1992, 204, 249-255) and Houston et al (Biochim. Biophys. Acta, 1985, 844, 233-239)). Data analysis was performed using the curve fitting package Enzfitter (Elsevier Biosoft). For competitive inhibitors data was fitted to the equation
where v is the observed rate and I is the concentration of inhibitor added. Thus the dissociation constant Ki for the inhibitor could be found.

The test system of test [1] is Beagle dog plasma cholesterol and triglyceride levels. Put plainly: Measurement of hyperlipidaemic activity in dogs: plasma cholesterol and triglyceride levels. The format is in vivo. To be noted: male Beagle dogs; 25 mg/kg/day for 2 weeks. The procedure:
(§1) 3. Measurement of hyperlipidaemic activity in rats and dogs
25 (b) Dog The compound of example 2 was administered to male Beagle dogs at a level of 25 mg/kg/day for 2 weeks.

In a further test the test system is HepG2 cells. In words: Effect of compounds on cholesterol (CL) and fatty acid (FA) synthesis in HepG2 cells. The format is cell-based. The settings on record: Homo sapiens; for activity at 30 µM: Conc. 30 μM; for activity at 3 µM: Conc. 3 μM; for activity at 10 µM: Conc. 10 μM; for activity at 1000 µM: Conc. 1000 μM. As to the method: 2. Measurement of effect of compounds on cholesterol (CL) and fatty acid (FA) synthesis in HepG2 Cells HepG2 cells were cultured in 24-well cell culture plates in DMEM (Dulbecco's Modified Eagle's Medium) containing Hepes (20 mM), bicarbonate (10 mM), glutamine (2 mM) and foetal calf serum (10% w/v). Once the cells had grown to between 80% and 90% confluence, the medium was replaced by DMEM without the addition of foetal calf serum and the cells incubated overnight. The rates of cholesterol and fatty acid synthesis were then measured by the addition of ^3 H2 O, to a specific radioactivity of 71 mCi/mmol, for the final 90 min of the incubation. Vehicle or test compound were added to the medium either 1.5 or 14.5 hr prior to the addition of ^3 H2 O to give the final desired concentration. Incubations were terminated and the rates of cholesterol and fatty acid synthesis determined from the amounts of ^3 H incorporated into cellular cholesterol and fatty acids as described previously (Berkhout et al.; Biochem J., 1990, 272, 181).

Test [2] concerns Sprague Dawley rat plasma cholesterol and triglyceride levels. Put plainly: Measurement of hyperlipidaemic activity in rats: plasma cholesterol and triglyceride levels. The format is in vivo. The settings on record: in diet at 0.125% (w:w) for 7 days. As to the method:
as §1
The compound of example 2 was administered to Spmgue Dawley rats in their diet at a concentration of 0.125% (w:w) for 7 days.

Where a name gives a salt, the structure may show the parent alone. Read-outs that look alike come from different tables or passages of the source.

Regarding `O=C(O)C[C@](O)(C[C@@H](O)CCCCCCc1ccc(Cl)cc1Cl)C(=O)O` (single isomer, unassigned) [Example 18, (+) (3R*,5S*) 3-Carboxy-11-(2,4-dichlorophenyl)-3,5-dihydroxyundecanoic acid, disodium salt], the Ki (commonly a dissociation constant, usually derived from enzyme kinetics or from competition with a known ligand) at human ATP citrate lyase was 760 nM; at rat ATP citrate lyase it was 700 nM.
Take `O=C(O)C[C@]1(O)C[C@H](CCCCCCc2ccc(Cl)cc2Cl)OC1=O` (relative stereo) [Example 2, ±(3R*, 5S*) 3-Carboxymethyl-5-[6-(2,4-dichlorophenyl)hexyl]3-hydroxytetrahydrofuran-2-one]: the “reduction of plasma cholesterol levels” value in test [1] is given as 20-25%; in test [2], 30%. For the same molecule, the “reduction of plasma triglyceride levels” value in test [1] was 20-25%; in test [2], 64%. Moreover, the “activity against ATP citrate lyase (rat)” value on rat ATP citrate lyase was “inactive”. Also, the activity at 30 µM worked out at 8 ± 3% in the test with HepG2 cells (read-out: CL synthesis) and 32 ± 3% with HepG2 cells (read-out: FA synthesis).
Regarding `O=C(O)C[C@](O)(C[C@@H](O)CCCCCCc1ccc(Cl)cc1Cl)C(=O)O` (single isomer, unassigned) [Example 20, (-) (3R*,5S*) 3-Carboxy-11-(2 4-dichlorophenyl)-3 5-dihydroxyundecanoic acid, disodium salt], the Ki came out at 690 nM on human ATP citrate lyase and 700 nM on rat ATP citrate lyase.
With `O=C(O)[C@H](O)[C@@]1(O)C[C@@H](CCCCCCc2ccc(Cl)cc2Cl)OC1=O` (relative stereo) [Example 11, ±(1'R*,3S*,5R*) 3-[Carboxy(hydroxy)methyl]-5-[6-(2,4-dichlorophenyl)hexyl]-3-hydroxytetrahydrofuran-2-one], in the test on HepG2 cells (read-out: CL synthesis), the activity at 3 µM was 69 ± 13% and the activity at 10 µM was found to be 86 ± 29%. Moreover, in the test with HepG2 cells (read-out: FA synthesis), the activity at 3 µM is 74 ± 11% and the activity at 10 µM is 76 ± 13%.
In the case of `O=C(O)C[C@](O)(C[C@@H](O)CCCCCCc1ccc(Cl)cc1Cl)C(=O)O` (relative stereo) [Example 1, ±(3R*, 5S*) 3-Carboxy-11-(2,4-dichlorophenyl)-3,5-dihydroxyundecanoic acid, disodium salt], the inhibition constant (Ki) on rat ATP citrate lyase was determined as 800 nM. Also, the activity at 1000 µM stood at 80 ± 6% with HepG2 cells (read-out: CL synthesis) and 123 ± 3% in the test with HepG2 cells (read-out: FA synthesis).
